# Like-named read-outs stand apart in the source and are kept apart here.
# Columns and labels:
# [1] = tested on: Pneumocystis murina; experiment: In vitro ATP content of Pneumocystis (luciferin-luciferase assay)
# [2] = tested on: Pneumocystis carinii; experiment: as above
# [3] = tested on: C. parapsilosis; experiment: MIC against Candida species (Table 4); settings: 24 h
# [4] = tested on: C. krusei; experiment: MIC against Candida species (Table 4); settings: Pichia kudriavzevii, 24 h
# [5] = tested on: C. guilliermondii; experiment: MIC against Candida species (Table 4); settings: Meyerozyma guilliermondii, 24 h
# [6] = tested on: C. glabrata; experiment: MIC against Candida species (Table 4); settings: Nakaseomyces glabratus, 24 h
# [7] = tested on: Histoplasma capsulatum; assay type: cell-based; settings: 24-hour treatment
# [8] = tested on: Cryptococcus neoformans; experiment: MIC against Cryptococcus neoformans (Table 4); settings: Cryptococcus neoformans, 72 h
# [9] = tested on: Rhizopus oryzae; experiment: MIC (Table 5); settings: Rhizopus arrhizus, 24 h
# [10] = tested on: Rhizopus oryzae; experiment: MIC, CLSI M38-A2 broth dilution (Table 1); assay type: cell-based
# [11] = tested on: P. variotii; experiment: MIC (Table 5); settings: Paecilomyces variotii, read-out: MIC 100%
# [12] = tested on: Paeceilomyces variotii; experiment: MIC, CLSI M38-A2 broth dilution (Table 1); assay type: cell-based; settings: isolate QC
# [13] = tested on: Apophysomyces; experiment: MIC (Table 5); settings: 24 h
# [14] = tested on: Scedosporium apiospermum; experiment: MIC, CLSI M38-A2 broth dilution (Table 1); assay type: cell-based
# [15] = tested on: Lomentospora prolificans; experiment: MIC, CLSI M38-A2 broth dilution (Table 1); assay type: cell-based; settings: isolate LP1, 48 hours
# [16] = tested on: Blastomyces dermatitidis; experiment: MIC (Table 6); assay type: cell-based; settings: read-out: MIC VORI 100% 50%
# [17] = tested on: Blastomyces dermatitidis; experiment: MIC, macrodilution method (Table 1); assay type: cell-based; settings: 96 hours
# [18] = tested on: Fusarium oxysporum; experiment: MIC, CLSI M38-A2 broth dilution (Table 1); assay type: cell-based
# [19] = tested on: Fusarium sp.; experiment: MIC (Table 5); assay type: cell-based; settings: Fusarium, read-out: MIC 100%
# [20] = tested on: Scedosporium sp.; experiment: MIC (Table 5)
# [21] = tested on: Coccidioides sp.; experiment: microbe, parasite or virus in culture; assay type: cell-based; settings: Coccidioides
# [22] = tested on: Fusarium solani; experiment: MIC, CLSI M38-A2 broth dilution (Table 1); assay type: cell-based; settings: isolate FS1, 48 hours
# [23] = tested on: Aspergillus fumigatus; experiment: Recovery of Aspergillus fumigatus mycelia growth after removal of antifungal drugs (MTT); assay type: cell-based; settings: treated 12 hours, drug removed, 24 hours more
compound,measurement,setting,value
"CC1(C)S[C@@H]2[C@H](NC(=O)[C@H](N)c3ccccc3)C(=O)N2[C@H]1C(=O)O [Ampicillin, ampicillin, reference compound]",Pm % Reduction in ATP/Vehicle Control,"[1]; Table 3, 10 μg/ml, 24 hours",0%
same,Pm % Reduction in ATP/Vehicle Control,"[1]; Table 3, 10 μg/ml, 48 hours",0%
same,Pm % Reduction in ATP/Vehicle Control,"[1]; Table 3, 10 μg/ml, 72 hours",0%
same,Pm % Reduction in ATP/Vehicle Control,"[2]; Table 2, 10 μg/ml, 24 hours",0%
same,Pm % Reduction in ATP/Vehicle Control,"[2]; Table 2, 10 μg/ml, 48 hours",0%
same,Pm % Reduction in ATP/Vehicle Control,"[2]; Table 2, 10 μg/ml, 72 hours",0%
"OC(Cn1cncn1)(Cn1cncn1)c1ccc(F)cc1F [FLU, Fluconazole, reference compound]",MIC50,"[3]; isolate CP-1, 24 hrs",0.25 µg/mL
same,MIC50,"[3]; isolate CP-2, 24 hrs",≤ 0.125 µg/mL
same,MIC50,"[3]; isolate CP-3, 24 hrs",0.25 µg/mL
same,MIC50,"[3]; isolate CP-4, 24 hrs",0.25 µg/mL
same,MIC50,"[3]; isolate CP-5, 24 hrs",≤ 0.125 µg/mL
same,MIC50,"[3]; isolate CP-6, 24 hrs",16 µg/mL
same,MIC50,"[3]; isolate CP-7, 24 hrs",16 µg/mL
same,MIC50,[3]; isolate QC,1 µg/mL
same,MIC50,[4],8 µg/mL
same,MIC50,"[5]; isolate Cgu-1, 24 hrs",8 µg/mL
same,MIC50,"[5]; isolate Cgu-2, 24 hrs",2 µg/mL
same,MIC50,"[5]; isolate Cgu-3, 24 hrs",1 µg/mL
same,MIC50,"[5]; isolate Cgu-4, 24 hrs",1 µg/mL
same,MIC50,"[5]; isolate Cgu-5, 24 hrs",2 µg/mL
same,MIC50,"[5]; isolate Cgu-6, 24 hrs",8 µg/mL
same,MIC50,"[5]; isolate Cgu-7, 24 hrs",4 µg/mL
same,MIC50,"[6]; isolate CG-1, 24 hrs",16 µg/mL
same,MIC50,"[6]; isolate CG-2, 24 hrs",16 µg/mL
same,MIC50,"[6]; isolate CG-3, 24 hrs",32 µg/mL
same,MIC50,"[6]; isolate CG-4, 24 hrs",32 µg/mL
same,MIC50,"[6]; isolate CG-5, 24 hrs",16 µg/mL
same,MIC50,"[6]; isolate CG-6, 24 hrs",2 µg/mL
same,MIC50,"[6]; isolate CG-7, 24 hrs",2 µg/mL
same,MIC50,"[6]; isolate CG-8, 24 hrs",2 µg/mL
same,MIC50,"[6]; isolate CG-9, 24 hrs",2 µg/mL
same,MIC50,"[6]; isolate CG-10, 24 hrs",4 µg/mL
same,reduction of fungal viability,[7]; then growth in absence of drug,did not significantly reduce fungal viability
same,viability staining of yeasts,[7]; ethidium bromide / fluorescein staining,only fungistatic
same,MIC50,"[8]; isolate CN-1, 72 hrs",4 µg/mL
same,MIC50,"[8]; isolate CN-2, 72 hrs",12 µg/mL
same,MIC50,"[8]; isolate CN-3, 72 hrs",64 µg/mL
"CC[C@@H]([C@H](C)O)n1ncn(-c2ccc(N3CCN(c4ccc(OC[C@@H]5CO[C@@](Cn6cncn6)(c6ccc(F)cc6F)C5)cc4)CC3)cc2)c1=O [POS, Posaconazole, reference compound]",MIC,"[9]; read-out: MIC 100%, isolate R-1, 24 hrs",0.5 µg/mL
same,MIC,"[9]; read-out: MIC 100%, isolate R-2, 24 hrs",0.5 µg/mL
same,MIC,"[9]; read-out: MIC 100%, isolate R-3, 24 hrs",0.5 µg/mL
same,MIC,"[9]; read-out: MIC 100%, isolate R-4, 24 hrs",0.125 µg/mL
same,MIC,"[9]; read-out: MIC 100%, isolate R-5, 24 hrs",0.25 µg/mL
same,MIC,"[9]; read-out: MIC 100%, isolate R-6, 24 hrs",0.125 µg/mL
same,MIC 100%,"[10]; isolate RO1, 24 hours",1 gg/m1
same,MIC 100%,"[10]; isolate RO2, 24 hours",1 gg/m1
same,MIC 100%,"[10]; isolate RO3, 24 hours",1 gg/m1
same,MIC,[11]; 24 h,0.06 µg/mL
same,MIC 100%,[12],0.25 gg/m1
same,MIC,"[13]; read-out: MIC 100%, isolate AE-1, 24 hrs",0.125 µg/mL
same,MIC,"[13]; read-out: MIC 100%, isolate AE-2, 24 hrs",1 µg/mL
same,MIC 100%,"[14]; isolate SA2, 72 hours",2 gg/m1
same,MIC 100%,[15],0.5 gg/m1
"N=C(N)c1ccc(OCCCCCOc2ccc(C(=N)N)cc2)cc1 [Pent., pentamidine isethionate, reference compound]",Pm % Reduction in ATP/Vehicle Control,"[1]; Table 3, 1 μg/ml, 24 hours",72.06%
same,Pm % Reduction in ATP/Vehicle Control,"[1]; Table 3, 1 μg/ml, 48 hours",87.94%
same,Pm % Reduction in ATP/Vehicle Control,"[1]; Table 3, 1 μg/ml, 72 hours",93.85%
same,Pm % Reduction in ATP/Vehicle Control,"[2]; Table 2, 1 μg/ml, 24 hours",74.18%
same,Pm % Reduction in ATP/Vehicle Control,"[2]; Table 2, 1 μg/ml, 48 hours",97.06%
same,Pm % Reduction in ATP/Vehicle Control,"[2]; Table 2, 1 μg/ml, 72 hours",97.47%
"C[C@@H](c1ncncc1F)[C@](O)(Cn1cncn1)c1ccc(F)cc1F [VORI, Voriconazole, reference compound]",MIC,"[16]; isolate BD1, 72/192 hrs",≤ 0.03 µg/mL
same,MIC,"[16]; isolate BD2, 72/192 hrs",0.125 µg/mL
same,MIC,"[16]; isolate BD3, 72/192 hrs",0.125 µg/mL
same,MIC 100%,"[17]; isolate BD1, macrodilution",0.125 gg/m1
same,MIC 100%,"[17]; isolate BD2, macrodilution",≦0.03 gg/m1
same,MIC 100%,"[17]; isolate BD3, macrodilution",≦0.03 gg/m1
same,MIC 100%,"[18]; isolate FO1, 48 hours",16 gg/m1
same,MIC 100%,"[18]; isolate FO2, 48 hours",16 gg/m1
same,MIC,[11],0.06 µg/mL
same,MIC 100%,[12],0.125 gg/m1
same,MIC,"[19]; isolate F-1, 48/72 hrs",8 µg/mL
same,MIC,"[19]; isolate F-2, 48/72 hrs",8 µg/mL
same,MIC,"[19]; isolate F-3, 48/72 hrs",> 16 µg/mL
same,MIC,"[20]; read-out: MIC 100%, isolate S-1, 48/72 hrs",0.5 µg/mL
same,MIC,"[20]; read-out: MIC 100%, isolate S-2, 48/72 hrs",16 µg/mL
same,MIC,"[21]; read-out: MIC VORI 100% 50%, isolate COCCI-1, 72/192 hrs",0.125 µg/mL
same,MIC,"[21]; read-out: MIC VORI 100% 50%, isolate COCCI-2, 72/192 hrs",0.25 µg/mL
same,MIC,"[21]; read-out: MIC VORI 100% 50%, isolate COCCI-3, 72/192 hrs",0.125 µg/mL
same,MIC 100%,"[14]; isolate SA1, 72 hours",0.25 gg/m1
same,MIC 100%,"[14]; isolate SA2, 72 hours",0.125 gg/m1
same,MIC 100%,[15],16 gg/m1
same,MIC 100%,[22],8 gg/m1
same,recovery of mycelia growth after removal of drug,[23],leaves mycelia viable
C[C@@H]1[C@H](O)[C@@H](C)/C=C/C=C/C=C/C=C/C=C/C=C/C=C/[C@H](O[C@@H]2O[C@H](C)[C@@H](O)[C@H](N)[C@@H]2O)C[C@@H]2O[C@](O)(C[C@@H](O)C[C@@H](O)[C@H](O)CC[C@@H](O)C[C@@H](O)CC(=O)O[C@H]1C)C[C@H](O)[C@H]2C(=O)O [amphotericin B],recovery of mycelia growth after removal of drug,[23],no viable Aspergillus fumigatus mycelia
CC[C@H](C)C[C@H](C)CCCCCCCCC(=O)N[C@H]1C[C@@H](O)[C@@H](NCCN)NC(=O)[C@@H]2[C@@H](O)CCN2C(=O)[C@H]([C@H](O)CCN)NC(=O)[C@H]([C@H](O)[C@@H](O)c2ccc(O)cc2)NC(=O)[C@@H]2C[C@@H](O)CN2C(=O)[C@H]([C@@H](C)O)NC1=O [caspofungin],recovery of mycelia growth after removal of drug,[23],leaves mycelia viable

# Reference: patent publication US20160199351A1, “COMPOSITIONS AND METHODS FOR INHIBITING FUNGAL INFECTIONS” (priority 2015, published 2016)
